The test system of series [1] is C57BL/6 mice. Description: Alcohol preference (alcohol / total fluids) in the IA2BC study. In kind it is in vivo. The procedure:
The mean alcohol preference, which was defined as the ratio between alcohol weight (g/kg/24 h) divided by the total weight of water and alcohol consumed by the animals (g/kg/24 h) was evaluated.

In series [2] the test system is C57BL/6 mice. Description: Mortality and gross pathology in the IA2BC study. In kind it is in vivo. The procedure:
Morbidity and mortality checks were performed daily. Animals that were sacrificed during the study were considered for the interpretation of study results as animals that died during the study. In case of mortality before the study's scheduled termination, gross pathology evaluation was performed as close as possible to the time of death. The time of death was recorded as precisely as possible.
Observations documented any irregularities, such as changes in local injection site, skin, fur, eyes, mucous membranes, respiratory, occurrence of secretions and excretions (e.g. diarrhea) and autonomic activity (e.g. lacrimation, salivation, piloerection, pupil size, unusual respiratory pattern). Changes in gait, posture, and response to handling, as the presence of bizarre behavior, tremors, convulsions, sleep, and coma were also included. All observed abnormalities, toxic signs, moribund condition, and pre-terminal deaths were recorded.
The animals were evaluated for macroscopic findings during gross pathology.

The nature of series [3]: Body weight in the IA2BC study. Format: in vivo, mice. The note with it: group 4F (MEAI mid dose, 60 mg/kg), only during Day 40 of cycle 1; *p<0.05. The procedure: Body weight was recorded upon arrival, before study initiation, three times a week thereafter and at termination.
Body weight (BW) was monitored every other day in all animals of all groups.

Series [4] concerns C57BL/6 mice. Description: Intermittent access to 20% Alcohol in two-bottle choice (IA2BC) model: alcohol consumption. Format: in vivo. The method, then:
The principle of the study is based on Intermittent access to 20% Alcohol in two-bottle choice (IA2BC) model in mice. The mice were provided during the whole Study with two bottles: one bottle of water, and another bottle of 20% ethanol solution, which were removed and replaced after 24 hours with another buttle of water, for additional 24 hours. In total, the mice were subjected to 20% ethanol 24 hours, three times a week, for seven-eight weeks (21-22 alcohol consumption days).
The alcohol consumption was measured after each 24 of alcohol exposure (by weighing the alcohol buttle before and after). Following four weeks of intermittent access to 20% alcohol the mice were allocated to groups according to their alcohol consumption, to achieve balanced groups. To examine the effect of treatment in reducing alcohol consumption, mice were treated with the Test Item/s or Vehicle daily during weeks 6-7/8. […]
Animal alcohol and water consumption was recorded for each cage and was done for a 24±2 hours period starting at Day 1, three times a week thereafter until the end of the Study.
Intermittent access to 20% Alcohol in two-bottle choice (IA2BC) model in mice. The mice were subjected to 20% ethanol 24 hours, three times a week, for five weeks (15 alcohol consumption days), and the alcohol consumption was measured by weight. […]

Series [5] has as its system C57BL/6 mice. Description: Food consumption in the IA2BC study. The note with it: cycle 2, Group 7F, MEAI/PEA 0/25 mg/kg. In kind it is in vivo. The method, then: Animal food consumption was performed twice before first dosing (during alcohol addition, and without alcohol addition), during dosing period at each alcohol addition (six times in total) and before termination (without alcohol addition).
The Food consumption was recorded in each cage for a […] period. Determinations of food consumption (calculated value) were based on a provided diet placed in hoppers and the remaining unused diet weighed.
Food consumption was monitored per each mouse in each individual cage for 24 h during Alcohol addition time, by measuring the weight of food before and after 24 hours. The consumption of food was measured during all MEAI treatment days, in both cycles. The mean value for each group during each consumption day was calculated as fold change from baseline (i.e. food consumption measured before MEAI treatment), per each animal. The fold change values of each MEAI/PEA treated group was compared to the vehicle groups (1F/6F/7F) and statistical analysis was performed.

With `COc1ccc2c(c1)CC(N)C2` (centres unmarked) [MEAI, 5-methoxy-2-aminoindan], in the series with C57BL/6 mice [1] (cycle 1, 100 mg/kg MEAI), the “reduction of alcohol preference compared to control, significance” value was “statistically significant”. Besides, the “mean alcohol preference compared to control groups” value in the series on C57BL/6 mice [1] (cycle 1, MEAI 20-100 mg/kg) is listed as “reduced in a dose dependent manner”. In addition, in the series on C57BL/6 mice [2] (high doses treated groups, after prolonged alcohol consumption), the mortality entry is “four”. In addition, the “gross pathology findings in liver, kidneys, heart and spleen (bright color and/or enlarged)” value in the series with C57BL/6 mice [2] (observed in all groups including vehicle treated) was “most likely related to the alcohol consumption and not to the MEAI treatment”. Moreover, the “body weight compared to control group” value in series [3] is reported as “significantly lower”. Besides, the “reducing alcohol consumption of the treated animals” value in the series with C57BL/6 mice [4] (MEAI 20-100 mg/kg PO daily, weeks 6-7/8, treated vs control) is listed as “significant dose dependent effect”. Besides, the “alcohol consumption during treatment compared to consumption before treatment” value in the series on C57BL/6 mice [4] (cycle 1, MEAI at a dose of 40 mg/kg and at higher doses PO, mean of six alcohol days, ** p<0.01, *** p<0.001) is “significantly reduced”.
On to `CCCCCCCCCCCCCCCC(=O)NCCO` [PEA, N-(2-hydroxyethyl) hexadecanamide], for which the “reduction of food consumption compared to own baseline” value in the series with C57BL/6 mice [5] is given as 22%.

Source of the values: patent US20250302773A1, “CO[…] AND N-ACYLETH[…] USES THEREOF” (CLEARMIND MEDICINE INC., priority 2022, published 2025).
